By EC50 is commonly meant the concentration needed to bring the measured effect to its halfway point.

For the experiment, the system named is recombinant NL4-3 virus. Briefly: HIV cell culture assay. The format is cell-based. As to conditions: Human immunodeficiency virus 1, NL43, MT2. In short, it runs like this:
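Antiviral activity measured in MT-2 cells infected 4–5 days with NL4-3 carrying Renilla luciferase in place of part of nef plus Gag P373S, in the presence of serial inhibitor dilutions. Read-out was luciferase activity by Dual Luciferase lysis/substrate mix.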
For the compound `C=C(C)[C@@H]1CC[C@]2(NCCN3CCS(=O)(=O)CC3)CC[C@]3(C)[C@H](CC[C@@H]4[C@@]5(C)CCN(c6ncc(C(=O)O)cn6)C(C)(C)[C@@H]5CC[C@]43C)[C@@H]12` [Example 53, 2-((4aR,6aR,6bR,8aS,11R,11aR,11bR,13aR,13bR)-8a-((2-(1,1-dioxidothiomorpholino)ethyl)amino)-4,4,6a,6b,13b-pentamethyl-11-(prop-1-en-2-yl)hexadecahydro-1H-cyclopenta[5,6]naphtho[2,1-f]isoquinolin-3(2H,4H,13bH)-yl)pyrimidine-5-carboxylic acid], the EC50 was determined as 1 nM.

As for `C=C(C)[C@@H]1CC[C@]2(CNCCCN3CCS(=O)(=O)CC3)CC[C@]3(C)[C@H](CC[C@@H]4[C@@]5(C)CCN(c6ccc(C(=O)O)nn6)C(C)(C)[C@@H]5CC[C@]43C)[C@@H]12` [Example 54, 6-((4aR,6aR,6bR,8aS,11R,11aR,11bR,13aR,13bR)-8a-(((3-(1,1-dioxidothiomorpholino)propyl)amino)methyl)-4,4,6a,6b,13b-pentamethyl-11-(prop-1-en-2-yl)hexadecahydro-1H-cyclopenta[5,6]naphtho[2,1-f]isoquinolin-3(2H,4H,13bH)-yl)pyridazine-3-carboxylic acid], the EC50 worked out at 280 nM.

With `C=C(C)[C@@H]1CC[C@]2(CNCCCN3CCS(=O)(=O)CC3)CC[C@]3(C)[C@H](CC[C@@H]4[C@@]5(C)CCN(c6c(O)c(=O)c6=O)C(C)(C)[C@@H]5CC[C@]43C)[C@@H]12` [Example 55, 3-((4aR,6aR,6bR,8aS,11R,11aR,11bR,13aR,13bR)-8a-(((3-(1,1-dioxidothiomorpholino)propyl)amino)methyl)-4,4,6a,6b,13b-pentamethyl-11-(prop-1-en-2-yl)hexadecahydro-1H-cyclopenta[5,6]naphtho[2,1-f]isoquinolin-3(2H,4H,13bH)-yl)-4-hydroxycyclobut-3-ene-1,2-dione], the EC50 stood at 250 nM.

For the compound `C=C(C)[C@@H]1CC[C@]2(CNCCCN3CCS(=O)(=O)CC3)CC[C@]3(C)[C@H](CC[C@@H]4[C@@]5(C)CCN(c6ncc(C(=O)O)s6)C(C)(C)[C@@H]5CC[C@]43C)[C@@H]12` [Example 56, 2-((4aR,6aR,6bR,8aS,11R,11aR,11bR,13aR,13bR)-8a-(((3-(1,1-dioxidothiomorpholino)propyl)amino)methyl)-4,4,6a,6b,13b-pentamethyl-11-(prop-1-en-2-yl)hexadecahydro-1H-cyclopenta[5,6]naphtho[2,1-f]isoquinolin-3(2H,4H,13bH)-yl)thiazole-5-carboxylic acid], the EC50 is 4 nM.

Source of the values: patent US20190307776A1, “AZA-S[…] HUMAN IMMUNODEFICIENCY VIRUS REPLICATION” (priority 2016, published 2019).
